According to patent US5506256A, “Proline derivatives possessing prolyl endopeptidase-inhibitory activity” (Yoshitomi Pharmaceutical Industries, Ltd., priority 1990, dated 1996):

Key:
[1] = target: T1, cathepsin B (Bos taurus, UniProt P07688); assay: Determination of cathepsin B-inhibitory activity; type: biochemical, bovine; conditions: read-out: inhibition rate, cathepsin B
T1 construct: purchased Sigma; host or cells: bovine spleen
Experimental: (§1) The methods for the measurement of inhibitory activities against various proteases and the method for calculating the inhibition rate are as follows.
Determination of cathepsin B-inhibitory activity
Similarly, by following the procedure mentioned above, but employing a 100 mM sodium phosphate buffer (pH 6.0; containing 1.33 mM EDTA Na2) as a buffer for measurement, a 0.02 μM solution of cathepsin B (derived from bovine spleen, Sigma) in the same buffer as an enzyme solution and a 200 μM solution of 7-(N-benzyloxycarbonyl-phenylaranyl-arginyl)-4-methylcoumarinamide (Peptide Institute, Inc.) in the same buffer as a substrate solution, each fluorescence (f1, f2 and f3) was determined, respectively.
(§2) Using the fluorescence x1, x2 and x3 measured in the abovementioned manner, the inhibitory rate against various proteases was calculated by the following formula where x stands for b, c, d, e or f: [formula]

[2] = system: leucine aminopeptidase; assay: Determination of leucine aminopeptidase-inhibitory activity; type: biochemical, swine; set-up: unit not given here
Experimental: as §1
Determination of leucine aminopeptidase-inhibitory activity
Similarly, by following the procedure mentioned above, but employing a 50 mM Tris-HCl buffer (pH 8.0) as a buffer for measurement, a […] solution of leucine aminopeptidase (derived from swine kidney, Sigma) in the same buffer as an enzyme solution and a 200 μM solution of 7-leucyl-4-methyl-coumarinamide (Peptide Institute, Inc.) in the same buffer as a substrate solution, each fluorescence (d1, d2 and d3) was determined, respectively.
as §2

[3] = target: T2, chymotrypsin (Bos taurus, UniProt P00766); assay: Determination of chymotrypsin-inhibitory activity; type: biochemical, bovine; conditions: read-out: inhibition rate, chymotrypsin
T2 construct: purchased Sigma; host or cells: bovine pancreas
Experimental: as §1
Determination of chymotrypsin-inhibitory activity
Similarly, by following the procedure mentioned above, but employing a 50 mM Tris-HCl buffer (pH 8.0) as a buffer for measurement, a 0.2 μM solution of chymotrypsin (derived from bovine pancreas, Sigma) in the same buffer as an enzyme solution and a […] solution of 7-(N-succinyl-leucyl-leucyl-valyl-tyrosyl)-4-methylcoumarinamide (Peptide Institute, Inc.) in the same buffer as a substrate solution, each fluorescence (c1, c2 and c3) was determined, respectively.
as §2

[4] = target: T3, trypsin (Bos taurus, UniProt P00760); assay: Determination of trypsin-inhibitory activity; type: biochemical, bovine; conditions: read-out: inhibition rate, trypsin
T3 construct: purchased Sigma; host or cells: bovine pancreas
T3 sequence (P00760 24-246): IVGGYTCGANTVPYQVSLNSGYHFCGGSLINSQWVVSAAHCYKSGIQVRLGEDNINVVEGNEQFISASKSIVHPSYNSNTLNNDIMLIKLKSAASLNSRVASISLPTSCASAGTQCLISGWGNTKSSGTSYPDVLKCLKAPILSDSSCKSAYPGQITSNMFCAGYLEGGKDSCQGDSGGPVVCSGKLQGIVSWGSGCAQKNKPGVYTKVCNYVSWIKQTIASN
Experimental: as §1
Determination of trypsin-inhibitory activity
In the present invention, a 50 mM Tris-HCl buffer (pH 8.0) was employed as a buffer for measurement.
To a mixture of the above-mentioned buffer (850 μl), a solution of the compounds of the present invention in the same buffer (50 μl) and a 0.02 μM solution of trypsin (derived from bovine pancreas, Sigma) in the same buffer (50 μl) was added a 200 μM solution of 7-(prolyl-phenylaranyl-arginyl)-4-methylcoumarinamide (Peptide Institute, Inc.) in the same buffer (50 μl),and the mixture was incubated at 30° C. for 1 hour. The reaction mixture was immersed in ice (0° C.) to terminate the reaction, and the fluorescence (b1) was determined 1 hour later (excitation at 370 nm and emission at 440 nm). Concurrently, there were conducted the experiment wherein, in the system above, the trypsin solution was substituted for a buffer alone, and the experiment wherein the solution of the compounds of the present invention was substituted for a buffer above. Each fluorescence (b2 and b3) was determined respectively.
as §2

[5] = target: T4, elastase (Sus scrofa, UniProt P00772); assay: Determination of elastase-inhibitory activity; type: biochemical, swine; conditions: read-out: inhibition rate, elastase
T4 construct: purchased Sigma; host or cells: swine pancreas
Experimental: as §1
Determination of elastase-inhibitory activity
Similarly, by following the procedure mentioned above, but employing a 1 mM Tris-HCl buffer (pH 8.5) as a buffer for measurement, a 0.2 μM solution of elastase (derived from swine pancreas, Sigma) in the same buffer as an enzyme solution and a 200 μM solution of 7-(N-succinyl-aranyl-prolyl-aranyl)-4-methylcoumarinamide (Peptide Institute, Inc.) in the same buffer as a substrate solution, each fluorescence (e1, e2 and e3) was determined, respectively.
as §2

[6] = target: T5, prolyl endopeptidase (Rattus norvegicus, UniProt O70196); assay: Prolyl endopeptidase-inhibitory activity; type: biochemical; conditions: for inhibition at 1 µM / inhibition at 0.1 µM: read-out: inhibition rate, prolyl endopeptidase; for IC50: prolyl endopeptidase extracted from rat brain, pH 7.0, 30° C., read-out: IC50
T5 construct: prolyl endopeptidase extracted from rat brain; from tissue; host or cells: rat brain
Experimental: Prolyl endopeptidase-inhibitory activity
A mixture of a 0.1M potassium sodium phosphate buffer (pH 7.0) (2675 μl), a solution of the compounds of the present invention in a 0.1M potassium sodium phosphate buffer (pH 7.0) (100 μl) and a solution of prolyl endopeptidase extracted from rat brain in a 25 mM sodium phosphate buffer (100 μl) [123 unit/1, pH 6.8, containing 1 mM dithiothreitol and 0.5 mM EDTA, prepared by the method described in J. Neurochem., 35, 527 (1980)]was preincubated at 30° C. for 30 minutes. Thereto was added a 0.2 mM solution of 7-(N-succinyl-glycyl-prolyl)-4-methylcoumarinamide (Peptide Institute, INC.) in a 0.1M potassium sodium phosphate buffer (pH 7.0) (125 μl), and the mixture was incubated at 30° C. for 1 hour. The reaction mixture was immersed in ice (0° C.) to terminate the reaction, and the fluorescence (a1) was determined ten minutes later (excitation at 370 nm and emission at 440 nm). Concurrently, there were conducted the experiment wherein, in the above system, the prolyl endopeptidase solution was substituted for a 25 mM sodium phosphate buffer (pH 6.8, containing 1 mM dithiothreitol and 0.5 mM EDTA) and the experiment wherein the solution of the compounds of the present invention was substituted for a 0.1M potassium sodium phosphate buffer (pH 7.0). Each fluorescence (a2 and a3) was determined respectively [See Tanpakushitsu Kakusan Koso, 29, 127 (1984)]. The prolyl endopeptidase-inhibition rate was calculated by the following formula, and IC50, a concentration of a compound producing 50% inhibition, was estimated by semilogarithmic graph paper. [formula] […]

T5 sequence (O70196 whole entry): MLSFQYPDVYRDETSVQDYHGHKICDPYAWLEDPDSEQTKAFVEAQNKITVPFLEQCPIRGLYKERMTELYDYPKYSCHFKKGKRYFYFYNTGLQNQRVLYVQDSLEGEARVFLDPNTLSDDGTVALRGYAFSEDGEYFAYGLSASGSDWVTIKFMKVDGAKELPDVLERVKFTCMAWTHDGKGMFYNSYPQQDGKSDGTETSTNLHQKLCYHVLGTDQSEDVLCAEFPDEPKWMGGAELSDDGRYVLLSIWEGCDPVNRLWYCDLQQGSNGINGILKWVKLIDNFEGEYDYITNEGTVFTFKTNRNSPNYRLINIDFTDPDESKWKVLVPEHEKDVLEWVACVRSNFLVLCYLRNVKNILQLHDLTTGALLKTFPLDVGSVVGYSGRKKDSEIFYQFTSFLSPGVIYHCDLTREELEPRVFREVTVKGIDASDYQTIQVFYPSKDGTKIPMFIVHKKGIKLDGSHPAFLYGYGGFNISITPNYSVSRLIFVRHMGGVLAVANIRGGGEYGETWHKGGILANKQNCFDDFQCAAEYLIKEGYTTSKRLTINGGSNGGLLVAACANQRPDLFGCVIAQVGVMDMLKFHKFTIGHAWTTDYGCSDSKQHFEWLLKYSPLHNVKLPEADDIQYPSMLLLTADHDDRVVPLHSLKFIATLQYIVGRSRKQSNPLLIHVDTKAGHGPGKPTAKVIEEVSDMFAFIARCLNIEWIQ
T4 sequence (P00772 27-266): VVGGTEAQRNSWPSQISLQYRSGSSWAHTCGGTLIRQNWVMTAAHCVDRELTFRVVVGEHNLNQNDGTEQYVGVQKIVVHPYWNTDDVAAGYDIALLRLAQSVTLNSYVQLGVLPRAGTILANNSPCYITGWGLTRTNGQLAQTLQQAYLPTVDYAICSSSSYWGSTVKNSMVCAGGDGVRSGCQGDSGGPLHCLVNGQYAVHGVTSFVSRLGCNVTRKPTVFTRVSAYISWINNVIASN

| Structure (SMILES) | inhibition at 1 µM [1] | inhibition rate, leucine aminopeptidase ([2]; 1 μM) | inhibition at 1 µM [3] | inhibition at 1 µM [4] | inhibition at 1 µM [5] | inhibition at 1 µM [6] | IC50 [6] | inhibition at 0.1 µM [1] | inhibition rate, leucine aminopeptidase ([2]; 0.1 μM) | inhibition at 0.1 µM [3] | inhibition at 0.1 µM [4] | inhibition at 0.1 µM [5] | inhibition at 0.1 µM [6] |
| --- | --- | --- | --- | --- | --- | --- | --- | --- | --- | --- | --- | --- | --- |
| COc1ccc([S@+]([O-])CC(=O)[C@@H]2CCCN2C(=O)[C@@H]2CCCN2C(=O)OCc2ccccc2)cc1 [Compound 12, (2S)-1-(N-Benzyloxycarbonyl-L-prolyl)-2-{[(R)-4-methoxy-phenylsulfinyl]acetyl}pyrrolidine] | 0% | 0 | 0% | 0% | 0% | 92% | 20 nM |  |  |  |  |  |  |
| Cc1ccc([S@@+]([O-])CC(=O)[C@@H]2CCCN2C(=O)[C@@H]2CCCN2C(=O)OCc2ccccc2)cc1 [Compound 13, (2S)-1-(N-Benzyloxycarbonyl-L-prolyl)-2-{[(S)-p-tolyl-sulfinyl]acetyl}pyrrolidine] |  |  |  |  |  |  | 0.3 nM | 0% | 0 | 0% | 0% | 0% | 98% |
| Cc1ccc([S@+]([O-])CC(=O)[C@@H]2CCCN2C(=O)[C@@H]2CCCN2C(=O)OCc2ccccc2)cc1 [Compound 14] |  |  |  |  |  |  | 1.5 nM | 0% | 0 | 0% | 0% | 0% | 97% |
| COc1ccc([S@@+]([O-])CC(=O)[C@@H]2CCCN2C(=O)[C@@H]2CCCN2C(=O)CCc2ccccc2)cc1 [Compound 15] |  |  |  |  |  |  | 2.5 nM | 0% | 0 | 0% | 0% | 0% | 98% |
| Cc1ccc([S@@+]([O-])CC(=O)[C@@H]2CCCN2C(=O)[C@@H]2CCCN2C(=O)CCc2ccccc2)cc1 [Compound 16, (2S)-1-[N-(3-Phenylpropionyl)-L-prolyl]-2-{[(S)-p-tolylsulfinyl]acetyl}pyrrolidine] |  |  |  |  |  |  | 1.5 nM | 0% | 0 | 0% | 0% | 0% | 99% |
| O=C(C[S@+]([O-])c1ccccc1)[C@@H]1CCCN1C(=O)[C@@H]1CCCN1C(=O)CCc1ccccc1 [Compound 17, (2S)-1-[N-(3-Phenylpropionyl)-L-prolyl]-2-{[(S)-phenylsulfinyl]acetyl}pyrrolidine] |  |  |  |  |  |  | 0.5 nM | 0% | 0 | 0% | 0% | 0% | 99% |
| COc1ccc(OCC(=O)[C@@H]2CCCN2C(=O)[C@@H]2CCCN2C(=O)OCc2ccccc2)cc1 [Compound 18, (2S)-1-(N-Benzyloxycarbonyl-L-prolyl)-2-[(4-methoxyphenoxy)-acetyl]pyrrolidine] |  |  |  |  |  |  | 1.5 nM | 0% | 0 | 0% | 0% | 0% | 93% |
| O=C(COc1ccccc1)[C@@H]1CCCN1C(=O)[C@@H]1CCCN1C(=O)CCc1ccccc1 [Compound 19, (2S)-2-(Phenoxyacetyl)-1-[N-(3-phenylpropionyl)-L-prolyl]-pyrrolidine] | 0% | 0 | 0% | 0% | 0% | 98% | 15 nM |  |  |  |  |  |  |
| COc1ccc(OCC(=O)[C@@H]2CCCN2C(=O)[C@@H]2CCCN2C(=O)CCc2ccccc2)cc1 [Compound 20, (2S)-2-[(4-Methoxyphenoxy)acetyl]-1-[N-(3-phenylpropionyl)-L-prolyl]pyrrolidine] | 0% | 0 | 0% | 0% | 0% | 96% | 40 nM |  |  |  |  |  |  |
